Experimental data taken from US9580426B2, “Compounds that expand hematopoietic stem cells” (Novartis AG, priority 2008, dated 2017).

Biological target: T1, human AHR (Homo sapiens, UniProt P35869)
T1 construct: endogenous in cells; host or cells: unnamed human cells carrying an AHR-dependent luciferase reporter
T1 sequence (P35869 11-848): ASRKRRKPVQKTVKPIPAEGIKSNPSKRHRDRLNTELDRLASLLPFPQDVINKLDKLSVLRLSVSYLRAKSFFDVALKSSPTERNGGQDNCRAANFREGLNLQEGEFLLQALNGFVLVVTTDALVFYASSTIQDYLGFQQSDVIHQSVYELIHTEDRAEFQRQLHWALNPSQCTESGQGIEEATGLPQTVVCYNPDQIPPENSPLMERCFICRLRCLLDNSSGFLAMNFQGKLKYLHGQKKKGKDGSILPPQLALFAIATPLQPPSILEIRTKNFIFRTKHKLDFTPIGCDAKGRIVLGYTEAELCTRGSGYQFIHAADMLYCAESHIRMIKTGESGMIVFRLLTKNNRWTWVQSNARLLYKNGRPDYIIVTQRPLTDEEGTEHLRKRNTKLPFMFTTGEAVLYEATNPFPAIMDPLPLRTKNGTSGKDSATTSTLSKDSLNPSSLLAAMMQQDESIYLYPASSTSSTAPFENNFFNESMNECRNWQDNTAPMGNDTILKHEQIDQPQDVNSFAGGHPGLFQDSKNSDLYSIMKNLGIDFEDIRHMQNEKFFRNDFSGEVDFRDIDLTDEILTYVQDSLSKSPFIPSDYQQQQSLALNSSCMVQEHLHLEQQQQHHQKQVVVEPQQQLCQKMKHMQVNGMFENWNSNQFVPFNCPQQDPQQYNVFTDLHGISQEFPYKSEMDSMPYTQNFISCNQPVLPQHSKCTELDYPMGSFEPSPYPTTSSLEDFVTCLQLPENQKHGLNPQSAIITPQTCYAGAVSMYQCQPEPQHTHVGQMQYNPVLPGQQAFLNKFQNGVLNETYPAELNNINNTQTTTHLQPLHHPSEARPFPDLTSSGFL
Test: cell-based
Format: cell-based
Description: Further, the ability of Example 1 to block 2,3,7,8-tetrachlorodibenzo-p-dioxin (TCDD, dioxin)-mediated CYP1B1 mRNA expression by qPCR in mPB-derived CD34^+ cells was determined. Treatment with TCDD (3 nM) caused a 4.5-fold increase in the level of CYP1B1 mRNA compared with the vehicle control (0.01% toluene). […] To determine the effects of Example 1 in AHR transcription the ability of Example 1 to inhibit a dioxin-induced AHR dependent luciferase reporter gene assay was tested.

- EC50: 127 nM
- dioxin-induced AHR dependent transcription (1 μM, cells expressing human AHR): completely abolished
SMILES: CC(C)n1cnc2c(NCCc3ccc(O)cc3)nc(-c3csc4ccccc34)nc21 [Example 1, 4-(2-(2-(benzo[b]thiophen-3-yl)-9-isopropyl-9H-purin-6-ylamino)ethyl)phenol]
- agonist activity (induction of AHR dependent transcription) (human cells): failed to induce AHR dependent transcription
